Patent US8519110B2, “mRNA cap analogs” (Board of Supervisors of Louisiana State University And …, priority 2008, dated 2013)
Where two headings read alike, the source gives them in different places.

Tests used:
[1] = molecular target: T1, Human DcpS (Homo sapiens, UniProt Q96C86); test: Assay of susceptibility to DcpS (RP HPLC); format: biochemical; details: 40 μM cap analog, 30° C., up to 120 min
T1 construct: made in house; host or cells: Escherichia coli
T1 sequence (Q96C86 1-337): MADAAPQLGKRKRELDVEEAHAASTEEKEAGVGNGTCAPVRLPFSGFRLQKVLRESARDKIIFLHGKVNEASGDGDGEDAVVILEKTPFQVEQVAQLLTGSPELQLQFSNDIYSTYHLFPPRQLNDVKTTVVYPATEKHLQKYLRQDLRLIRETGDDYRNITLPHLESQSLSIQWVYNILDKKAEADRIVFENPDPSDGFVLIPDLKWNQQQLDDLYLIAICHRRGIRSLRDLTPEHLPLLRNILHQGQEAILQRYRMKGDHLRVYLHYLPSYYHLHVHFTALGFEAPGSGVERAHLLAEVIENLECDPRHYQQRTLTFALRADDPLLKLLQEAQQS
Protocol: Human DcpS was expressed in Escherichia coli as described in L. Cohen et al., “Nematode m^7GpppG and m3^2,2,7GpppG decapping: activities in Ascaris embryos and characterization of C. elegans scavenger DcpS,” RNA, vol. 10, pp. 1609-1624 (2004). A 15 μM solution of the protein in 20 mM Tris buffer, pH 7.5, containing 50 mM KCl, 0.2 mM EDTA, 1 mM DTT, 0.5 mM PMSF, and 20% glycerol was stored at −80° C. until used. Enzymatic reactions were carried out at 30° C. in 500 μl of 50 mM Tris-HCl, pH 7.9, containing 20 mM MgCl2 and 60 mM (NH4)2SO4. A 40 μM solution of the selected cap analog was treated with 5.0 μl of DcpS for 120 min. At times of 10, 30, 60, and 120 min, a 100-μl sample was collected from the reaction mixture and deactivated by incubation at 90° C. for 2 min. Samples were analyzed without further treatment by analytical RP HPLC with a linear gradient of methanol in 0.1 M KH2PO4, pH 6.0, from 0-50% over 15 min.

[2] = tested on: rabbit reticulocyte lysate system; test: In vitro translation efficiency of capped luciferase mRNA with 31-base poly(A) tail, method II transcripts; format: biochemical
Protocol: Capped, polyadenylated luciferase mRNAs were synthesized in vitro by PCR from a dsDNA template that contained the SP6 promoter, the 5′-UTR sequence of rabbit β-globin mRNA, the entire firefly luciferase coding region, and 31 adenosine residues. A typical transcription reaction mixture (40 μl) contained SP6 transcription buffer (Fermentas), 0.7 ug of DNA template, 1 U/μl RiboLock Ribonuclease Inhibitor (Fermentas), 0.5 mM each of ATP, CTP, and UTP, 0.1 mM GTP, and 0.5 mM dinucleotide cap analog. The reaction mixture was incubated at 37° C. for 5 min before addition of SP6 RNA polymerase (Fermentas) to a final concentration of 1 U/μl, and incubation then continued for 45 min at 37° C. The reaction mixture was treated with DNase as in Method I. RNA transcripts were purified with NucAway Spin Columns (Ambion). The integrity of transcripts and quantitation was performed as in Method I.
A micrococcal nuclease-treated rabbit reticulocyte lysate system (Flexi Rabbit Reticulocyte Lysate System, Promega) was used for in vitro translation. Translation reactions were performed in 10 μl for 60 min at 30° C. A typical reaction mixture contained 40% reticulocyte lysate, the 20 “standard” amino acids (0.01 mM each), MgCl2 (1.2 mM), potassium acetate (170 mM), and mRNA (five different concentrations of each transcript, ranging from 0.25 to 4 μg/ml). Luciferase activity was measured in a luminometer (Glomax, Promega). Linear regression was used to fit the data points (luciferase activity versus concentration of mRNA transcript), and translational efficiency was defined as the slope of this line. The relative translational efficiencies of the test mRNAs were compared to that of m^7GpppG-capped luciferase mRNA, the latter being defined as 1.0.

[3] = molecular target: T2, eIF4E (Mus musculus, UniProt P63073); test: Binding affinity of cap analogs to eIF4E by fluorescence titration; details: equilibrium association constant; 20 °C, pH 7.2, ionic strength 150 mM
Protocol: Fluorescence titration measurements were carried out on an LS-50B or LS-55 spectrofluorometer (Perkin Elmer Co.) at 20.0±0.2° C. in 50 mM HEPES/KOH (pH 7.2), 0.5 mM EDTA, and 1 mM DTT, with ionic strength adjusted to 150 mM by addition of KCl. Various cap analogue solutions, of increasing concentration, were added in 1 μl aliquots to 1.4 ml of 0.1 or 0.2 μM protein solutions. Fluorescence intensities were measured with excitation at 280 nm or 295 nm with 2.2 nm bandwidth, and detection at 337 nm with 4 nm bandwidth and a 290-nm cut-off filter. The data were corrected for sample dilution and inner filter effects. Equilibrium association constants (Kas) were determined by fitting the theoretical dependence of fluorescence intensity on cap analog concentration to the experimental data, as otherwise described in A. Niedźwiecka et al., “Biophysical studies of eIF4E cap-binding protein: recognition of mRNA 5′ cap structure and synthetic fragments of eIF4G and 4E-BP1 proteins,” J. Mol. Biol., vol. 312, pp. 615-635 (2002). The concentration of protein was allowed to be a free parameter in the equilibrium equation, to determine the amount of “active” protein. The final Kas was calculated as a weighted average of three to ten independent titrations, with the weights taken as the reciprocals of the squares of the numerical standard deviations. Numerical nonlinear least-square regression analysis was performed using ORGIN 6.0 (Microcal Software Inc., USA).
The binding affinities of eukaryotic eIF4E for various cap analogs were determined by fluorescence quenching. This biophysical test allows one to predict the potential efficacy of cap analogs in translation. Those having higher affinities for eIF4E than the unmodified cap analog (m^7GpppG) are expected to be better recognized by the translational machinery, leading to higher translational efficiencies. They also are expected to compete more effectively with unmodified mRNA when free cap dinucleotides are used to inhibit translation. See generally E. Grudzien-Nogalska et al., “Synthesis of anti-reverse cap analogs (ARCAs) and their applications in mRNA translation and stability,” Methods Enzymol., vol. 431, pp. 203-227 (2007).

[4] = molecular target: cap-dependent translation of luciferase mRNA in reticulocyte lysate; test: Inhibition of cap-dependent translation in vitro by free cap analogs; format: biochemical, rabbit
Protocol: In vitro translation reactions were performed in 12.5 μl for 60 min at 30° C. under conditions favorable for cap-dependent translation. In some cases, the reaction mixture was incubated for 60 min at 30° C. prior to adding the dinucleotide cap analog (inhibitor) and m2^7,3′-OGppG-capped luciferase mRNA to start translation. In other cases, to analyze biological stability, the cap analog was incubated in the translation mixture for 60 min at 30° C. prior to adding the luciferase mRNA to start translation. A typical reaction mixture contained 56% reticulocyte lysate, the 20 “standard” amino acids (0.01 mM each), MgCl2 (1.2 mM), potassium acetate (170 mM), RiboLock Ribonuclease Inhibitor (0.32 U/μl), cap analog solution ( 1/10 of total reaction volume), and m2^7,3′-OGpppG-capped luciferase RNA. […] Reactions were performed with cap analog concentrations ranging from 0.12 to 100 μM. Luciferase activity was measured in a luminometer. […] The program OriginPro8 (OriginLab) was used for curve fitting with the equation qLUC=Z/(1+I/IC50)+N, where qLUC is the activity of luciferase synthesized in the presence of cap analog, Z is the activity of luciferase synthesized in the absence of cap analog, N is the activity of luciferase synthesized in a cap-independent manner, and I is the cap analog concentration.
Two type of experiments were carried out. In one set of experiments (condition A), a cap analog was added to the translation system together with luciferase mRNA. In the other set of experiments (condition B), the cap analog was incubated in the translation system for 60 min before addition of mRNA. […] There was a correlation between the resistance to hydrolysis by DcpS and the stability of analogs in the translation system.

[5] = molecular target: recombinant human Dcp2 (Homo sapiens, UniProt Q8IU60); details: mRNAs capped with the analog; cited from earlier work
[6] = tested on: cultured mammalian cells; details: compared with ARCA-capped (m2^7,3′-OGpppG) mRNA; cited from earlier work
[7] = tested on: cultured mammalian cells; details: compared with ARCA-capped mRNA; cited from earlier work
[8] = molecular target: T2, eIF4E; details: literature comparison; cited from earlier work
[9] = Chemical stability in solution and on storage; format: physicochemical
Protocol: FIG. 5 depicts the synthesis of m2^7,2′-OGppSepG. The selenophosphate (PSeO3^−3) was prepared by a modification of the method described in R. Glass et al., “Selenophosphate,” Meth. Enzymol., vol. 252, pp. 309-315 (1995). Trimethylsilyl phosphite was treated with selenium in pyridine to give trimethylsilyl selenophosphate, which was then desilylated by methanol in the presence of triethylamine to give the selenophosphate triethylammonium salt. This compound was coupled with the imidazolide derivative of 7,2′-O-dimethylguanosine 5′-monophosphate (m2^7,2′-OGMP-Im) to give 7,2′-O-dimethylguanosine 5′-O-(2-selenodiphosphate) (m2^7,2′-OGDPβSe). […] The reaction was very rapid; essentially 100% conversion of m2^7,2′-OGMP-Im into m2^7,2′-OGDPβSe was observed by RP HPLC after 15 min. […] Thus, care was taken to maintain the pH at 7 or above during purification of m2^7,2′-OGDPβSe, which allowed the product to be isolated with 80% yield after ion-exchange chromatography. The m2^7,2′-OGDPβSe was then coupled with the imidazolide derivative of GMP in the presence of excess ZnCl2. Two peaks were observed by RP HPLC, corresponding to two m2^7,2′-OGppSepG diastereomers, which were designated D1 and D2 according to their elution order. However, the coupling proceeded slowly, and complete disappearance of m2^7,2′-OGDPβSe took about two days. The extended reaction time allowed partial hydrolysis of m2^7,2′-OGDPβSe to m2^7,2′-OGMP, and only a moderate reaction yield (40% conversion by HPLC, 25% isolated). The diastereomeric mixture of m2^7,2′-OGppSepG after isolation by ion-exchange chromatography was successfully resolved into pure diastereomers by RP HPLC. The products were characterized by mass spectrometry, ^1H NMR, and ^31P NMR to confirm structures and homogeneity.

[10] = cap analog added together with luciferase mRNA, read-out: Inhibition of in vitro translation (IC50), condition A
[11] = cap analog incubated in translation system 60 min before addition of mRNA, read-out: Inhibition of in vitro translation (IC50), condition B

T2 sequence (P63073 28-217 limits assumed): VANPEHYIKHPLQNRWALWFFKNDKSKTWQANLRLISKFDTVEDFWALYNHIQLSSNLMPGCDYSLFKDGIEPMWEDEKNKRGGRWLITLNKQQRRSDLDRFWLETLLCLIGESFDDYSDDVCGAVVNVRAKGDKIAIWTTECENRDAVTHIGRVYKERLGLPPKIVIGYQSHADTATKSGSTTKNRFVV

In the case of [BH3-]P(=O)(OP(=O)(O)OCC1OC(n2cnc3c(=O)[nH]c(N)nc32)C(O)C1O)OP(=O)(O)OCC1OC(n2c[n+](C)c3c(=O)[nH]c(N)nc32)C(O)C1O (single isomer, unassigned) [m^7GppBH3pG (D1), m^7GppBH3pG], the “Susceptibility to DcpS” value [1] is reported as “resistant”, the “Translation efficiency in comparison to m^7GpppG-LUC-(A)31 mRNA, Experiment No. 4” value ([2]; experiment 4) is reported as 1.65 and the “Translation efficiency in comparison to m^7GpppG-LUC-(A)31 mRNA, Experiment No. 5” value ([2]; experiment 5) is reported as 2.17. For the same compound, the “Translation efficiency in comparison to m^7GpppG-LUC-(A)31 mRNA, Mean” value ([2]; mean of experiments) was 1.91, the “Cap analog/eIF4E affinity (KAS)” value [3] was 44 ± 2 μM^−1 and the IC50 [4, 10] was 1600 ± 300 nM. For the same compound, the IC50 [4, 11] was 1300 ± 100 nM.

For CO[C@H]1[C@@H](O)[C@H](n2c[n+](C)c3c(=O)[nH]c(N)nc32)O[C@@H]1COP(=O)([O-])OP(=O)(O)CP(=O)(O)OC[C@H]1O[C@@H](n2cnc3c(=O)[nH]c(N)nc32)[C@H](O)[C@@H]1O [m2^7,3′-OGppCH2pG], the “Hydrolysis of capped mRNA by recombinant human Dcp2 in vitro” value [5] is given as “resistant to hydrolysis”, the “Stability of capped mRNA in cultured cells” value [6] is given as “more stable than those capped with m2^7,3′-OGpppG” and the “Overall translational efficiency of capped mRNA in cells” value [7] is given as “lower overall translational efficiency”. For the same compound, the “Binding affinity for eIF4E” value [8] was “lower binding affinity for eIF4E than that of m2^7,3′-OGpppG”.

With COC1C(O)C(COP(=O)([O-])OP(O)(O)=[Se])OC1n1c[n+](C)c2c(=O)[nH]c(N)nc21 (centres unmarked) [m2^7,2′-OGDPβSe, 7,2′-O-dimethylguanosine 5′-O-(2-selenodiphosphate)] the “Stability in acidic aqueous solutions” value ([9]; acidic aqueous solutions, hydrolyzed to m2^7,2′-OGMP) was “unstable” and the “Stability in neutral or basic solutions” value ([9]; neutral or basic solutions) was “only moderately stable”.

For [BH3-]P(=O)(OP(=O)(O)OCC1OC(n2cnc3c(=O)[nH]c(N)nc32)C(O)C1O)OP(=O)(O)OCC1OC(n2c[n+](C)c3c(=O)[nH]c(N)nc32)C(O)C1O (single isomer, unassigned) [m^7GppBH3pG (D2), m^7GppBH3pG], the “Susceptibility to DcpS” value [1] was “resistant”, the “Cap analog/eIF4E affinity (KAS)” value [3] was 13.0 ± 0.2 μM^−1 and the IC50 [4, 10] was 4500 ± 500 nM. The IC50 [4, 11] was 3500 ± 900 nM.
